Results published in ChEMBL document CHEMBL2448809, “UCSF DeRisi Lab MMV Box Apicoplast Screening”.

The compounds below were run on Plasmodium falciparum (assay: MMV: Compounds (1uM) were screened in a 72hr growth assay monitored by flow cytometry both in the presence and absence of supplemental isopentenyl pyrophosphate (IPP) 200uM. Compounds which fail to show anti-malarial activity when chemically rescued by IPP are therefore specific to the apicoplast. The values are expressed as the ratio of the corresponding activity with and without IPP, respectively.).
Format: functional, W2

Compared with `COc1ccc2c(c1)C1(Nc3ccccc3-c3nc4ccccc4n31)C(=O)N2` (configuration not stated), `CC1(c2ccccc2)Nc2ccccc2-c2nc3ccccc3n21` (configuration not stated) is higher in Ratio: 0.9667 for the first, 1.062 for the second.

Going from `COc1cccc(Cn2c(Oc3ccccc3)nc3c2c(=O)n(C)c(=O)n3C)c1` to `COc1ccc2nc(C)cc(Nc3ccccc3O)c2c1`, the Ratio falls from 0.9255 to 0.7711.

First: CCOc1c(Cl)cc(CNCC(O)c2ccccc2)cc1OC (configuration not stated)
Second: CC(C)c1ccc(CNCC(O)c2ccccc2)cc1.Cl (configuration not stated)
The Ratio of the first is lower: 0.8286 for the first, 0.9296 for the second.

Going from `OC(CNCC1CCCO1)Cn1c2ccc(Cl)cc2c2cc(Cl)ccc21` (configuration not stated) to `CC(C)CCNCC(O)Cn1c2ccccc2c2ccccc21.Cl` (configuration not stated), the Ratio rises from 0.8732 to 0.9245.

First: CCn1nc(-c2ccc(C(=O)OC)cc2)nc2c(=O)n(C)c(=O)nc1-2
Second: COc1ccc(C)c2sc(N(Cc3cccnc3)C(=O)c3ccc(C#N)cc3)nc12
The Ratio of the first is higher: 1.058 for the first, 0.971 for the second.

Going from `CCOc1ccccc1CN1CCc2nc3cc(C(C)(C)C)nn3c(O)c2C1` to `Oc1c2c(nc3cc(-c4ccccc4)nn13)CCCC2`, the Ratio falls from 0.8444 to 0.8046.

Going from `Cc1cc(N2CCCC2)nc(Nc2ccc(NC(=O)CCc3ccccc3)cc2)n1` to `Cc1cc(Nc2cccc(F)c2)nc(NCc2ccccc2)n1`, the Ratio falls from 0.9077 to 0.8333.

Compared with `CN1CCN(c2ncnc3c2[nH]c2ccc(Cl)cc23)CC1`, `Oc1c(CN2CCN(c3ccccc3F)CC2)cc(Br)c2cccnc12` is lower in Ratio: 0.9492 for the first, 0.8919 for the second.

First: CC(C)(C)CC(C)(C)NCC(O)COc1ccc(Cl)cc1Cl (configuration not stated)
Second: CCOC(=O)c1cnc2ccc(Cl)cc2c1NCCCN(C)C
The Ratio of the first is lower: 0.8983 for the first, 1.179 for the second.

First: O=C1c2ccccc2-c2nnc(-c3ccc(Br)cc3)cc21
Second: OC1=C2C(=Nc3ccccc3SC2c2ccc(Br)cc2)c2ccccc21 (configuration not stated)
The Ratio of the first is lower: 0.8889 for the first, 1.068 for the second.

Going from `O=C(Nc1ccc(Br)cc1)Nc1cccc(Cl)c1` to `Cc1ccc(NC(=O)Nc2cccc(Cl)c2)cc1F`, the Ratio falls from 1.104 to 0.9455.

Compared with `CN(C)CCNc1cc(-c2ccccc2)nc2ccccc12`, `COc1ccc(Nc2nc(NCc3ccccc3)c3ccccc3n2)cc1` is higher in Ratio: 1.015 for the first, 1.093 for the second.

Going from `CCOC(=O)C1=C(C)N=c2sc(=Cc3cc(Cl)ccc3O)c(=O)n2C1c1ccc(OC)cc1` (configuration not stated) to `COc1ccc(C(=O)C2CC2c2ccc(Cl)cc2)cc1` (configuration not stated), the Ratio rises from 1.255 to 1.308.

Going from `Cc1nc2ccccc2c(O)c1CC=C(Cl)Cl` to `COCCn1c(C)nc2ccccc2c1=O`, the Ratio falls from 1.066 to 0.9589.

Going from `COc1ccc2nc(C)cc(Nc3ccc(Cl)cc3)c2c1` to `COc1ccc2nc(C)cc(Nc3cccc(O)c3)c2c1.Cl`, the Ratio rises from 0.8189 to 1.191.

First: CCC(O)c1ccc(Br)cc1NC(=O)c1cccc(Cl)c1 (configuration not stated)
Second: COc1ccc(-c2nonc2NC(=O)c2cccc(Cl)c2)cc1OC
The Ratio of the first is higher: 1 for the first, 0.9 for the second.

Going from `CN(C)CCCNCc1ccc(-c2ccc(F)c(Cl)c2)o1.Cl` to `Cc1ccc(OCCCCCCNCCO)c(C)c1`, the Ratio rises from 0.75 to 0.8556.

First: O=c1nc(C=Cc2ccc(Br)cc2)oc2ccccc12
Second: O=c1nc(C=Cc2ccc(Cl)cc2)oc2ccccc12
The Ratio of the first is higher: 1.133 for the first, 0.9697 for the second.

Going from `COc1ccc2nc(N)nc(C)c2c1` to `CCCCc1c(C)nc2c(OC)cccc2c1O`, the Ratio falls from 0.8974 to 0.8472.

First: CC(=O)c1ccc(NC(=O)CSc2nc(-c3ccccc3Cl)ns2)cc1
Second: Cc1ccccc1OCCSc1nc2ccc(NC(=O)c3ccccc3)cc2s1
The Ratio of the first is higher: 1.02 for the first, 0.8842 for the second.

First: Cc1sc2ncnc(Sc3nc4ccccc4[nH]3)c2c1C
Second: COc1cccc(C(=O)Nc2ccc(-c3nc4ccccc4[nH]3)cc2)c1
The Ratio of the first is higher: 0.9273 for the first, 0.7651 for the second.

Going from `COc1ccc(C(=O)NC(c2ccc(Cl)cc2Cl)c2cc(Cl)c3cccnc3c2O)cc1` (configuration not stated) to `Cc1ccnc(NC(c2cccc(OCc3ccccc3)c2)c2ccc3cccnc3c2O)c1` (configuration not stated), the Ratio rises from 0.9814 to 1.558.

Compared with `CCC(=O)Nc1nnc(Cc2ccc(OC)c(OC)c2)s1`, `CCOc1ccc(CCNC(=O)c2cccs2)cc1OCC` is higher in Ratio: 0.7213 for the first, 1.073 for the second.

Compared with `O=C(NCCCN1CCC(N2CCCCC2)CC1)C1=Cc2cc(Br)ccc2OC1`, `CCN(Cc1ccccc1)C1CCN(Cc2cc(Br)ccc2O)CC1.O=C(O)C(=O)O` is higher in Ratio: 0.8966 for the first, 0.9701 for the second.

Going from `O=C(Nc1ccc(CN2CCOCC2)cc1)c1ccc(-c2cc(Cl)ccc2Cl)o1` to `CCCCC(O)(c1ccc(Cl)cc1)C(CN1CCOCC1)c1ccc(Cl)cc1.Cl` (configuration not stated), the Ratio rises from 0.9054 to 1.074.

First: O=C(Nc1cccc(-c2nc3ccccc3[nH]2)c1)c1cccc(NC(=O)c2ccco2)c1
Second: Cc1cc(NC(=O)c2ccc(-c3ccccc3)cc2)no1
The Ratio of the first is lower: 0.6407 for the first, 0.9841 for the second.

Compared with `O=C(NC1CCN(Cc2ccccc2)CC1)c1cc(-c2cccnc2)nc2ccc(Cl)cc12`, `COc1ccc(CN2CCN(Cc3ccccc3)CC2)c(O)c1` is higher in Ratio: 0.7184 for the first, 1.283 for the second.

Compared with `CCOc1ccccc1NC(=O)CN1CCN(C(=O)c2ccco2)CC1`, `CCOC(=O)C1(Cc2ccccc2)CCN(Cc2cccc(OC)c2O)CC1` is lower in Ratio: 0.906 for the first, 0.7015 for the second.

Compared with `O=C1c2ccccc2C2=Nc3ccccc3SC(c3cccc(F)c3)C12` (configuration not stated), `Cl.OC(CNCc1ccccc1)Cn1c2ccccc2c2ccccc21` (configuration not stated) is higher in Ratio: 0.8676 for the first, 0.9403 for the second.

Going from `CCOc1cc2c(cc1OCC)C(c1cc(C)c(O)c(C)c1)NCC2.Cl` (configuration not stated) to `CCOc1cc2c(cc1OCC)C(c1cc(Cl)c(O)c(OCC)c1)NCC2` (configuration not stated), the Ratio falls from 1.148 to 0.8824.

Going from `O=C1CC(O)(C(F)(F)C(F)(F)F)Oc2ccccc21` (configuration not stated) to `O=c1c2c([nH]c3ccccc13)CCCC2`, the Ratio rises from 0.8205 to 0.8986.

Compared with `COc1cc(SC)ccc1C(=O)N1CCCC(C)C1` (configuration not stated), `CCN1CCN(c2c(C(=O)c3ccccc3)cnc3cc(OC)c(OC)cc23)CC1` is higher in Ratio: 0.6888 for the first, 0.9828 for the second.

Going from `CC(C)(C)c1ccc(C(=O)Nc2c3c(nn2-c2cccc(Cl)c2)CSC3)cc1` to `CC(C)(C)c1ccc2c(c1)CN(Cc1ccc(Cl)cc1)CO2`, the Ratio falls from 0.9138 to 0.8966.

Going from `COc1ccc(N2CCN(C(CNC(=O)CC(C)(C)C)c3ccc4c(c3)OCO4)CC2)cc1` (configuration not stated) to `O=C(O)C(=O)O.Oc1ccc(Br)cc1CN1CCN(Cc2cccc(F)c2)CC1`, the Ratio falls from 0.8841 to 0.8333.

Compared with `CCCCCCn1c(=N)n(CC(O)COc2cccc(C)c2)c2ccccc21.Cl` (configuration not stated), `CCCCCn1c(=N)n(CC(O)COc2cccc(C)c2)c2ccccc21.Cl` (configuration not stated) is higher in Ratio: 0.9831 for the first, 1.128 for the second.

Going from `Oc1ccc(C(=C(Cl)Cl)c2ccc(O)cc2)cc1` to `Cc1ccc(S(=O)(=O)c2c(COC(=O)c3cccc(C)c3)c(-c3ccccc3)nn2C)cc1`, the Ratio falls from 1.113 to 0.9265.

Going from `O=C(NCc1ccco1)C1CCN(S(=O)(=O)c2ccc(Br)cc2)CC1` to `CCCCN(CCCC)S(=O)(=O)c1ccc(NC(=O)c2ccco2)cc1`, the Ratio rises from 0.7733 to 0.8649.

Compared with `CN(C)c1ccc(N2C(N)=NC(N)=NC2(C)C)cc1`, `COc1cc2c(cc1OC)C1=NNC(=O)C1=NC(C)(C)C2` is higher in Ratio: 0.7632 for the first, 1.994 for the second.

Compared with `COc1ccc(OC)c(C2C3=C(CC(C)(C)CC3=O)N(c3ccc(Cl)c(Cl)c3)C3=C2C(=O)CC(C)(C)C3)c1`, `Cc1cc(=O)oc2c1ccc1oc(C(=O)c3ccccc3)c(C)c12` is higher in Ratio: 0.9277 for the first, 1.067 for the second.

Compared with `OC1CCCCC1C1(NC(=S)Nc2ccccc2)CCCCC1` (configuration not stated), `Cc1c(C)n(CC(O)CNC2CCCCC2C)c2ccccc12` (configuration not stated) is higher in Ratio: 0.9298 for the first, 0.9649 for the second.

Going from `Clc1ccc2c(N3CCCC3)ccnc2c1` to `CCOC(=O)C1CCN(C(=O)CN2C(=O)c3ccccc3C2c2c[nH]c3ccccc23)CC1` (configuration not stated), the Ratio falls from 0.8475 to 0.6812.
